Results: paper PMC11876601 (Molecular Systems Biology, 2025)
Read-outs that look alike come from different tables or passages of the source.

Tested on: p-sites in DNA-damaged AsPC-1 cells
Test: decryptM dose-resolved phosphoproteomics of ATRi in GEM-pre-treated cells
Type: cell-based, human
Procedure: Cell culture medium was replaced 24 h after seeding. […] For time point 0, AsPC-1 cells were treated with a vehicle and lysed immediately. The final DMSO concentration in all experiments was 0.2%.
Briefly, cells were washed twice with PBS and lysed in SDS lysis buffer (2% SDS in 40 mM Tris-HCl, pH 7.6), followed by sonication for 10 min (30 s on/30 s off) using a Bioruptor (Diagenode). For DNA hydrolysis, samples were boiled at 95 °C for 10 min and incubated with 2% trifluoroacetic acid (TFA) for 1 min, before the reaction was quenched using 4% N-methylmorpholine. Lysate was cleared by centrifugation at 11,000 × g for 5 min and protein concentration was determined using the Pierce BCA Protein Assay Kit (Thermo Scientific).
Using 70% ethanol, samples were then precipitated on beads, followed by washing thrice with 80% ethanol and once with 100% acetonitrile. Subsequently, proteins were reduced and alkylated using 10 mM TCEP, 50 mM chloroacetamide, and 2 mM CaCl2 in 100 mM EPPS/NaOH, pH 8.5 for 1 h at 37 °C, followed by tryptic digestion at 37 °C for 16 h. Peptides were acidified with 1% TFA and desalted on Chromabond HLB plates (30 µm particle size, 10 mg capacity, Machery-Nagel), using 0.1% TFA for equilibration and sample loading, and 0.1% TFA in 70% acetonitrile for peptide elution. Recovered peptides were freeze-dried by vacuum-centrifugation and stored at −20 °C.
Depending on the experiment, samples were either labeled with TMT-11plex (decryptM), TMT-10plex (non-decryptM, quadruplicates), or TMTpro reagent (time-series; all Thermo Scientific). Therefore, dried peptides were reconstituted in 15 µl 100 mM EPPS, pH 8.5 and each treatment condition was labeled with one channel of the respective TMT reagent (5 µl of 25 µg/µl reagent, Appendix Tables S4–S6). The reaction was incubated for 1 h at 23 °C and subsequently quenched with 0.4% hydroxylamine. Then, samples were pooled, acidified with 1% formic acid, and freeze-dried by vacuum-centrifugation. Labeled peptide pools were desalted on C18 Sep-Pak cartridges (37–55 µm particle size, 50 mg capacity, Waters), using 0.1% formic acid as equilibration solvent, and 0.1% formic acid in 60% acetonitrile was used as elution solvent. Eluted peptides were freeze-dried and stored at −20 °C until further use.
Basic reversed-phase (bRP) fractionation of peptides was performed on a Vanquish HPLC (Thermo Scientific). In short, dried peptides were reconstituted in 200 µl 25 mM ammonium bicarbonate, pH 8.0 and directly injected onto a Waters BEH130 XBridge C18 column (3.5 µm, 4.6 × 250 mm). […] Using an automated fraction collector, 96 fractions were collected between min 7 and 55 after injection. Fractions were acidified with 1% formic acid and pooled to 48 fractions, before they were freeze-dried and stored at −20 °C.
Immobilized metal ion affinity chromatography (IMAC) enrichment of phosphorylated peptides was performed on the Bravo automated liquid handling platform using AssayMAP Fe(III)-NTA cartridges (Agilent). In brief, the 48 dried peptide fractions were reconstituted in 0.1% TFA in 80% acetonitrile and further pooled to 12 fractions (200 µl final volume per well). The phosphopeptide enrichment protocol embedded in the Agilent AssayMAP Bravo Protein Sample Prep Workbench v2.0 software was run. Thereby, the cartridges were first primed with 150 μl 0.1% TFA in acetonitrile at 300 μl/min, and equilibrated with 150 μl 0.1% TFA in 80% acetonitrile at 10 μl/min. Then, pooled fractions were loaded at 5 µl/min and further washed three times with 150 μl 0.1% TFA in 80% acetonitrile at 50 μl/min. Enriched peptides were eluted with 60 μl 1% ammonium hydroxide at 5 μl/min.

For `C[C@@H]1COCCN1c1cc(-c2ccnn2C)c2ccnc(-c3ccn[nH]3)c2n1` [Elimusertib], the “Log2 PTM response (GEM+ATRi vs. GEM)” value was -0.6, the “Log2 PTM response (GEM+ATRi vs. GEM)” value (BRCA1-pS1239) was -1.6 and the “Log2 PTM response (GEM+ATRi vs. GEM)” value (BRD8-pS621) was -1.4. For the same compound, the “Log2 PTM response (GEM+ATRi vs. GEM)” value (CDKN2AIP-pS198) was -1.1, the “Log2 PTM response (GEM+ATRi vs. GEM)” value (CHEK1-pS317) was -1.9 and the “Log2 PTM response (GEM+ATRi vs. GEM)” value (CHEK1-pS468) was -3. The “Log2 PTM response (GEM+ATRi vs. GEM)” value (DHX9-pS321) was -1.6, the “Log2 PTM response (GEM+ATRi vs. GEM)” value (EXO1-pS714) was -1 and the “Log2 PTM response (GEM+ATRi vs. GEM)” value (FANCD2-pS319) was -1.9. The “Log2 PTM response (GEM+ATRi vs. GEM)” value (HDGF-pS103) was -1.1, the “Log2 PTM response (GEM+ATRi vs. GEM)” value (HMGA1-pS9) was -1.4 and the “Log2 PTM response (GEM+ATRi vs. GEM)” value (HMGA1-pS36;S44) was -1. For the same compound, the “Log2 PTM response (GEM+ATRi vs. GEM)” value (HMGA1-pS44) was -1.5, the “Log2 PTM response (GEM+ATRi vs. GEM)” value (HSPA4-pS552) was -0.7 and the “Log2 PTM response (GEM+ATRi vs. GEM)” value (HTATSF1-pS481) was -0.8. For the same compound, the EC50 (Homo sapiens, ASPC1, read-out: EC50, RALY S176) was 0.0128 µM, the “Log2 PTM response (GEM+ATRi vs. GEM)” value (LRRC42-pS385) was -2.3 and the “Log2 PTM response (GEM+ATRi vs. GEM)” value (NBN-pS397) was -0.9. The “Log2 PTM response (GEM+ATRi vs. GEM)” value (NBN-pS615) was -0.8, the “Log2 PTM response (GEM+ATRi vs. GEM)” value (PELP1-pS1033) was -1 and the “Log2 PTM response (GEM+ATRi vs. GEM)” value (PNISR-pS706) was -1.9. The “Log2 PTM response (GEM+ATRi vs. GEM)” value (PPP6R3-pS825) was -0.5, the “Log2 PTM response (GEM+ATRi vs. GEM)” value (PSMD4-pS266) was -0.9 and the “Log2 PTM response (GEM+ATRi vs. GEM)” value (RAD18-pS368) was -2.1. For the same compound, the “Log2 PTM response (GEM+ATRi vs. GEM)” value (RIF1-pS1873) was -0.6, the “Log2 PTM response (GEM+ATRi vs. GEM)” value (SNRPA-pS115) was -1.1 and the “Log2 PTM response (GEM+ATRi vs. GEM)” value (TCEA1-pS100;S97) was -2. The “Log2 PTM response (GEM+ATRi vs. GEM)” value (TCEB3-pS251) was -0.7, the “Log2 PTM response (GEM+ATRi vs. GEM)” value (THAP4-pS186) was -1.1 and the “Log2 PTM response (GEM+ATRi vs. GEM)” value (TOPBP1-pS1504) was -1.2. The “Log2 PTM response (GEM+ATRi vs. GEM)” value (TSEN34-pS136) was -0.8, the “Log2 PTM response (GEM+ATRi vs. GEM)” value (UHRF1-pS393) was -0.7 and the “Log2 PTM response (GEM+ATRi vs. GEM)” value (UIMC1-pS171) was -1.7. For the same compound, the “Log2 PTM response (GEM+ATRi vs. GEM)” value (ZC3H14-pS135) was -1.6, the “ATRi Regulation (Curve), RALY S176” value (classified by CurveCurator) was “down” and the “PTM response (norm. to 1 µM GEM)” value (source data 4B (p-site not named), 1 µM GEM + ATRi 10 nM) was 0.81. The “PTM response (norm. to 1 µM GEM)” value (source data 4B (p-site not named), 1 µM GEM + ATRi 300 nM) was 0.28, the “PTM response (norm. to 1 µM GEM)” value (source data 4B (p-site not named), 1 µM GEM + ATRi 1000 nM) was 0.29 and the “PTM response (norm. to 1 µM GEM)” value (source data 4B (p-site not named), 1 µM GEM + ATRi 3000 nM) was 0.30. For the same compound, the “PTM response (norm. to 1 µM GEM)” value (source data 4B (p-site not named), 1 µM GEM + ATRi 10000 nM) was 0.27, the “PTM response (norm. to 1 µM GEM)” value (source data 5B (p-site not named), 1 µM GEM + ATRi 3 nM) was 0.67 and the “PTM response (norm. to 1 µM GEM)” value (source data 5B (p-site not named), 1 µM GEM + ATRi 30 nM) was 0.17.
